Experiments:
Format in all cases: cell-based
human TLR8 = biological target: T1, human TLR8 (Homo sapiens, UniProt Q9NR97); assay: TLR8 inhibition reporter assay (HEK-Blue SEAP); conditions: HEK-Blue cells overexpressing human TLR8, stimulated with R848 15.9 μM, 22 hour incubation
T1 construct: host or cells: HEK-Blue cells
T1 sequence (Q9NR97 27-1041): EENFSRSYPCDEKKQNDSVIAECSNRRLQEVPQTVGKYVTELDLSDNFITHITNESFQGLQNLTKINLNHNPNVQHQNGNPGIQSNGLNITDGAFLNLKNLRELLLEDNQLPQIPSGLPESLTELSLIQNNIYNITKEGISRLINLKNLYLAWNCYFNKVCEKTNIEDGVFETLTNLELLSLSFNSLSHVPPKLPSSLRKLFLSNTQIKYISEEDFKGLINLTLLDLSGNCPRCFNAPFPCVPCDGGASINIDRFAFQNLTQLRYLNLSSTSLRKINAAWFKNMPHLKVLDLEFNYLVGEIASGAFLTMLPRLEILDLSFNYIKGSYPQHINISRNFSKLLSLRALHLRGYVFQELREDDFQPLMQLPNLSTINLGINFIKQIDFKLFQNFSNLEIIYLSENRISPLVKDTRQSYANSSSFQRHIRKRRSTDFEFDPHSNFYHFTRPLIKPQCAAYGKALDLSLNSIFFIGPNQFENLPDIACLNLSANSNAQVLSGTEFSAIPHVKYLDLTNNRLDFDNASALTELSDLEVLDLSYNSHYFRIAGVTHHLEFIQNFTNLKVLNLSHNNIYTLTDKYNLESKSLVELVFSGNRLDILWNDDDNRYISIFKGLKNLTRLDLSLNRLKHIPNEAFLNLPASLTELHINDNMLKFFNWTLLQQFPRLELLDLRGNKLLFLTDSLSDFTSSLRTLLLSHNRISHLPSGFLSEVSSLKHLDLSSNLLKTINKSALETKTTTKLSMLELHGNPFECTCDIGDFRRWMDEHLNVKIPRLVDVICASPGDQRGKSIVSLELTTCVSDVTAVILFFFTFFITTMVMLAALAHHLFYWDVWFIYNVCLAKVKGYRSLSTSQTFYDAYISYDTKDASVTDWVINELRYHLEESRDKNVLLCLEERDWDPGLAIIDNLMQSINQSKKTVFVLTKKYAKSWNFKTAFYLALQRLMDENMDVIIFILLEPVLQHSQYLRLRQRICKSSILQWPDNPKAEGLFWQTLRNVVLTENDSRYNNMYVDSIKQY
Method in brief: (§1)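 HEK-Blue cells overexpressing human TLR7, TLR8 or TLR9 with an NF-κB/AP-1-driven SEAP reporter were pre-treated 30 min at room temperature with compound (0.05 nM to 50 μM), then stimulated with gardiquimod 7.5 μM (TLR7), R848 15.9 μM (TLR8) or ODN2006 5 nM (TLR9). SEAP measured after 22 h at 37° C; inhibition normalized between agonist-plus-DMSO and reference-inhibitor wells.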

human TLR9 = biological target: T2, human TLR9 (Homo sapiens, UniProt Q9NR96); assay: TLR9 inhibition reporter assay (HEK-Blue SEAP); conditions: HEK-Blue cells overexpressing human TLR9, stimulated with ODN2006 5 nM, 22 hour incubation
T2 construct: host or cells: HEK-Blue cells
T2 sequence (Q9NR96 26-1032): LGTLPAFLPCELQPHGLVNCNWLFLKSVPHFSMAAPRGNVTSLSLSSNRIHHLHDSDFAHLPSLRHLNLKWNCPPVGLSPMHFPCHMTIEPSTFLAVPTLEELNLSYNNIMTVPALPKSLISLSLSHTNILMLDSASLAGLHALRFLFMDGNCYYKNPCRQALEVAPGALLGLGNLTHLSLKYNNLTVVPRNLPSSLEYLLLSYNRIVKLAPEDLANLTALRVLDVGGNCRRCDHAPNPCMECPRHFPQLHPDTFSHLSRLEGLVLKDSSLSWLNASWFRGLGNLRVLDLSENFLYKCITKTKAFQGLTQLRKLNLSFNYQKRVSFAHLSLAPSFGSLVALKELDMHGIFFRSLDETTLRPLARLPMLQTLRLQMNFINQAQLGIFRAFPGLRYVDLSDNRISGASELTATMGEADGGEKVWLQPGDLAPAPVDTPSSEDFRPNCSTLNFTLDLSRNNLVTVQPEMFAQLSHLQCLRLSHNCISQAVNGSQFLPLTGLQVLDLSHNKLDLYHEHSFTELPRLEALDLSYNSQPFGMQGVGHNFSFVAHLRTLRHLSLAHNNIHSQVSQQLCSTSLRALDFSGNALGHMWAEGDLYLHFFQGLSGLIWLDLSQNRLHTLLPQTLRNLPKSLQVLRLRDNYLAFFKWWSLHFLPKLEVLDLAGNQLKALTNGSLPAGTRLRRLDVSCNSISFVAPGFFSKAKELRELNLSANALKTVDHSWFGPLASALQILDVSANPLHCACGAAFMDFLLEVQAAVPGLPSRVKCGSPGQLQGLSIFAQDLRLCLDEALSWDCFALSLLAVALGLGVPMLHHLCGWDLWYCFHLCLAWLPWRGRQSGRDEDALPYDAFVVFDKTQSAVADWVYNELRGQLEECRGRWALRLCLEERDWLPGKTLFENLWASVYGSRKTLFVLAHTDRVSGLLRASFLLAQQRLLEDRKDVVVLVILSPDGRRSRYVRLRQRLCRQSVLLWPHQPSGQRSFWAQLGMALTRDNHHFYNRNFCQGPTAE
Method in brief: as §1

human TLR7 = biological target: T3, human TLR7 (Homo sapiens, UniProt Q9NYK1); assay: TLR7 inhibition reporter assay (HEK-Blue SEAP); conditions: HEK-Blue cells overexpressing human TLR7, stimulated with gardiquimod 7.5 μM, 22 hour incubation
T3 construct: host or cells: HEK-Blue cells
T3 sequence (Q9NYK1 27-1049): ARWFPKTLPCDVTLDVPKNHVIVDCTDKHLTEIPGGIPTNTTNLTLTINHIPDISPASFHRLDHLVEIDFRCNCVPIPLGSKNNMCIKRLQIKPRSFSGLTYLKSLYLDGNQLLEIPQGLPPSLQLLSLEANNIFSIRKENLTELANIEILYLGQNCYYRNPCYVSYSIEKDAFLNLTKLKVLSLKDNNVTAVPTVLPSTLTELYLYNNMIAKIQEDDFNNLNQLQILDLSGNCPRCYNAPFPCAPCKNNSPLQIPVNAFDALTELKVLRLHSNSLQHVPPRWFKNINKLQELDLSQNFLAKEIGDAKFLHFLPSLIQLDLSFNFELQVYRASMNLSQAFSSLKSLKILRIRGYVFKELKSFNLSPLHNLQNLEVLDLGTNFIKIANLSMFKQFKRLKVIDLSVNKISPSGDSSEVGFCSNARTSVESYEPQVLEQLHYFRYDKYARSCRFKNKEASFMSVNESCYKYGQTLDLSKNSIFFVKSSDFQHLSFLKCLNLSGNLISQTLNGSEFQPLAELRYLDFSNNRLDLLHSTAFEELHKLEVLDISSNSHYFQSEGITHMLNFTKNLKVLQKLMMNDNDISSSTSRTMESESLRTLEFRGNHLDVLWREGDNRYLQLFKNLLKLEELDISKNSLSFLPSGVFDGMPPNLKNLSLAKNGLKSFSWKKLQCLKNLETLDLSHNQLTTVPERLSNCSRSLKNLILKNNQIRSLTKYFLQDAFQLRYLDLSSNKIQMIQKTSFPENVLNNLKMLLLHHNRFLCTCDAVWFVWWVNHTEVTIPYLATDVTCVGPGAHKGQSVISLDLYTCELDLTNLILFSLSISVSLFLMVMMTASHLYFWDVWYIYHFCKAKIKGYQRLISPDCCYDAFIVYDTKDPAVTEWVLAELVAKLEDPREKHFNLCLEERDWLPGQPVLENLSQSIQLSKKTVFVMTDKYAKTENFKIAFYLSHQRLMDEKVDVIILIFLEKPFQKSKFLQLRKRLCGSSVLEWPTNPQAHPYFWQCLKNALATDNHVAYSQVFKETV
Method in brief: as §1

| Structure (SMILES) | IC50 (human TLR8) | IC50 (human TLR9) | IC50 (human TLR7) |
| --- | --- | --- | --- |
| Cc1cc(-c2cc3[nH]nc(C4CCC(N5CC(C)(C)C5)CC4)c3cc2C(C)C)cn2ncnc12 (single isomer, unassigned) [Example 136, 6-(3-(4-(3,3-dimethylazetidin-1-yl)cyclohexyl)-5-isopropyl-1H-indazol-6-yl)-8-methyl-[1,2,4]triazolo[1,5-a]pyridine] | 0.0039 µM | 4.9 µM | 0.0263 µM |
| Cc1cc(-c2cc3[nH]nc(C4CCC(N5CC(C)(C)C5)CC4)c3cc2C(C)C)cn2ncnc12 (single isomer, unassigned) [Example 137, 6-(3-(4-(3,3-dimethylazetidin-1-yl)cyclohexyl)-5-isopropyl-1H-indazol-6-yl)-8-methyl-[1,2,4]triazolo[1,5-a]pyridine] | 0.0006 µM | 8.68 µM | 0.0055 µM |
| Cc1cc2c(C3CCNCC3)n[nH]c2cc1-c1cc(C)c2ncnn2c1 [Example 18, 8-methyl-6-(5-methyl-3-(piperidin-4-yl)-1H-indazol-6-yl)-[1,2,4]triazolo[1,5-a]pyridine] | 0.0033 µM | 1.5 µM | 0.0129 µM |
| COc1cc(-c2cc(C)c3cn[nH]c3c2)cn2ncnc12 [Example 66, 8-methoxy-6-(4-methyl-1H-indazol-6-yl)-[1,2,4]triazolo[1,5-a] pyridine] | 0.0454 µM | 8.84 µM | 0.218 µM |
| Cc1cc2c(C3CCN(CC(=O)N(C)C)CC3)n[nH]c2cc1-c1cc(C)c2ncnn2c1 [Example 23, N,N-dimethyl-2-(4-(5-methyl-6-(8-methyl-[1,2,4]triazolo[1,5-a]pyridin-6-yl)-1H-indazol-3-yl)piperidin-1-yl)acetamide] | 0.0029 µM | 6.63 µM | 0.0434 µM |
| Cc1cc2c(C3CCC(N(C)C4COC4)CC3)n[nH]c2cc1-c1cc(C)c2ncnn2c1 (single isomer, unassigned) [Example 32, N-methyl-N-(4-(5-methyl-6-(8-methyl-[1,2,4]triazolo[1,5-a]pyridin-6-yl)-1H-indazol-3-yl)cyclohexyl)oxetan-3-amine] | 0.0003 µM | 4.44 µM | 0.0183 µM |
| CCc1cc(-c2cc(C)c3ncnn3c2)cc2[nH]nc(OC3CCNCC3)c12 [Example 195, 6-(4-ethyl-3-(piperidin-4-yloxy)-1H-indazol-6-yl)-8-methyl-[1,2,4]triazolo[1,5-a]pyridine] | 0.0008 µM | 6.18 µM | 0.0037 µM |
| Cc1cc(-c2cc(C)c3ncnn3c2)cc2[nH]nc(OC3CCC(N(C)C)CC3)c12 (single isomer, unassigned) [Example 180, N,N-dimethyl-4-((4-methyl-6-(8-methyl-[1,2,4]triazolo[1,5-a]pyridin-6-yl)-1H-indazol-3-yl)oxy)cyclohexan-1-amine] | 0.0023 µM | 3.26 µM | 0.0026 µM |
| CCc1cc(-c2cc(C)c3ncnn3c2)cc2[nH]nc(OC3CCC(N(C)C)CC3)c12 (single isomer, unassigned) [Example 169, 4-((4-ethyl-6-(8-methyl-[1,2,4]triazolo[1,5-a]pyridin-6-yl)-1H-indazol-3-yl)oxy)-N,N-dimethylcyclohexan-1-amine] | 0.0005 µM | 1.83 µM | 0.0012 µM |
| Cc1cc2c(C3CC(N(C)C)C3)n[nH]c2cc1-c1cc(C)c2ncnn2c1 (single isomer, unassigned) [Example 7, N,N-dimethyl-3-(5-methyl-6-(8-methyl-[1,2,4]triazolo[1,5-a]pyridin-6-yl)-1H-indazol-3-yl)cyclobutan-1-amine] | 0.0013 µM | 4.48 µM | 0.0216 µM |
| Cc1cc2c(OCCN(C)C)n[nH]c2cc1-c1cc(C)c2ncnn2c1 [Example 172, N,N-dimethyl-2-((5-methyl-6-(8-methyl-[1,2,4]triazolo[1,5-a]pyridin-6-yl)-1H-indazol-3-yl)oxy)ethan-1-amine] | 0.0014 µM | 5.07 µM | 0.0372 µM |
| CCc1cc2c(C3CCN(C(C)C)CC3)n[nH]c2cc1-c1cc(C)c2ncnn2c1 [Example 90, 6-(5-ethyl-3-(1-isopropylpiperidin-4-yl)-1H-indazol-6-yl)-8-methyl-[1,2,4]triazolo[1,5-a]pyridine] | 0.0001 µM | 7.94 µM | 0.0026 µM |
| Cc1cc(-c2cc3[nH]nc(C4CCN(C(=O)CN(C)C)CC4)c3cc2C(C)C)cn2ncnc12 [Example 111, 2-(dimethylamino)-1-(4-(5-isopropyl-6-(8-methyl-[1,2,4]triazolo[1,5-a]pyridin-6-yl)-1H-indazol-3-yl)piperidin-1-yl)ethan-1-one] | 0.0005 µM | 18.6 µM | 0.0018 µM |
| Cc1cc(-c2cc3[nH]nc(C4CCC(N5CCOCC5)CC4)c3cc2C(C)C)cn2ncnc12 (stereo not drawn) [Example 132, 4-(4-(5-isopropyl-6-(8-methyl-[1,2,4]triazolo[1,5-a]pyridin-6-yl)-1H-indazol-3-yl)cyclohexyl)morpholine] | 0.0001 µM | 5.43 µM | 0.0009 µM |

From patent US12172995B2, “Substituted indole and indazole compounds” (BRISTOL-MYERS SQUIBB COMPANY, priority 2018, dated 2024)
